Laboratory results reported in EP4786487A1, “PEPTIDE” (Peptidream Inc, priority 2023, dated 2025).
Where two headings read alike, the source gives them in different places. Starred links: 1 amine or outer side, 2 acyl side, 3 side chain; linkers in the order of their positions; H or OH if unused. Positions of bridges follow the written chain, without caps; N, C: chain ends. Non-standard residues stand in square brackets, D forms with d. Residues, ends and D or L forms follow the SMILES beside them. Groups on a side chain read outwards from the residue. *: point of attachment. Ala(1-CH2CO2H-4-piperidyl) = N[C@@H](CC1CCN(CC(=O)O)CC1)C(=O)O; X16 = O=C([C@H](Cc1c[nH]c2c(-c3cccc(Cl)c3)cccc12)N[*:1])[*:2]; Phe(4-(2-MeO-Ph)) = COc1ccccc1-c1ccc(C[C@H](N)C(=O)O)cc1; Phe(3-OCH2COOH) = N[C@@H](Cc1cccc(OCC(=O)O)c1)C(=O)O; Piperidine(4-CH2CH2CONH2) = NC(=O)CCC1CCN(*)CC1; Trp(6-OH) = N[C@@H](Cc1c[nH]c2cc(O)ccc12)C(=O)O; Phe(4-COOH) = N[C@@H](Cc1ccc(C(=O)O)cc1)C(=O)O; Piperazinyl(4-CH2COOH) = O=C(O)CN1CCN(*)CC1; Gly(decyl) = CCCCCCCCCC[C@H](N)C(=O)O; Gly(N(CH2)3COOH) = O=C(O)CCCNCC(=O)O; X1 = CCCCCCC[C@H](N[*:1])C(=O)[*:2]; NMeF = CN[C@@H](Cc1ccccc1)C(=O)O; 4Pal = N[C@@H](Cc1ccncc1)C(=O)O; NMeE = CN[C@@H](CCC(=O)O)C(=O)O; X12 = O=C(O)CCC1CCN(*)CC1; NMeA = CN[C@@H](C)C(=O)O; Dap = NC[C@H](N)C(=O)O; CO = O=C([*:1])[*:2]; Sar = CNCC(=O)O

Assays:
[1] = molecular target: T1, Myostatin (Homo sapiens, UniProt O14793); experiment: HepG2 reporter gene assay, Evaluation Procedure (2): 2-concentrations assay, myostatin inhibition; assay type: cell-based
T1 construct: active myostatin (also called mature myostatin) is a homodimer consisting of two C-terminal growth factor domains; purchased R&D systems 788-G8/CF
T1 sequence (O14793 267-375): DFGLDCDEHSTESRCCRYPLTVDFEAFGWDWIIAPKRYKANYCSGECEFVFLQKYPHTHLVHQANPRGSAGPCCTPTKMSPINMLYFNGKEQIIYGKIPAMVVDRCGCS
How it was run: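 HepG2 cells (HB-8065, ATCC) carrying the transfected pGL3(CAGA)12-luc reporter plasmid were treated with myostatin (788-G8/CF, R&D systems) at a final concentration of 10 ng/mL plus peptide and incubated at 37°C, 5% CO2 for 20 to 24 hours. Luminescence was read after adding PBS mixed 1:1 with One-Glo substrate, and inhibition rate was calculated.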

[2] = molecular target: T2, GDF-11 (Homo sapiens, UniProt O95390); experiment: HepG2 reporter gene assay, Evaluation Procedure (2): 2-concentrations assay, GDF-11 inhibition; assay type: cell-based; settings: for inhibition at 0.03 µM: HepG2, peptide 30nM, read-out: GDF11 Inhibition 30nM; for inhibition at 0.03 µM / inhibition at 0.1 µM: GDF-11 10 ng/mL; for inhibition at 0.1 µM: HepG2, peptide 100nM, read-out: GDF11 Inhibition 100nM
T2 construct: purchased R&D systems 1958-GD-G8/CF
T2 sequence (O95390 299-407): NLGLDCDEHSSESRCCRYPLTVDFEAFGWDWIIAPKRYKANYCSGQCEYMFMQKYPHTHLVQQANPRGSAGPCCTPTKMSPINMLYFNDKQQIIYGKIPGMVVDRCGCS
How it was run: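 HepG2 cells carrying the transfected pGL3(CAGA)12-luc reporter, a pGL3 vector with luciferase placed downstream of 12 CAGA repeats, were stimulated with GDF-11 at a final 10 ng/mL together with test peptide. Blank wells received no GDF-11 and no peptide. Plates were incubated 20 to 24 hours at 37°C with 5% CO2. Luminescence from One-Glo substrate was read to calculate percent inhibition.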

[3] = HepG2, read-out: inhibition rate (myostatin inhibition assay)
[4] = Table 7-3/7-4, myostatin 10 ng/mL, peptide at the higher of the 2 concentrations, HepG2, read-out: inhibition rate (myostatin inhibition assay)
[5] = Table 7-3/7-4, myostatin 10 ng/mL, peptide at the lower of the 2 concentrations, HepG2, read-out: inhibition rate (myostatin inhibition assay)
[6] = HepG2, first GDF-11 column of Table 7-3/7-4, GDF-11 10 ng/mL, peptide at the lower of the 2 concentrations, read-out: inhibition rate (GDF-11 inhibition assay)
[7] = HepG2, second GDF-11 column of Table 7-3/7-4, GDF-11 10 ng/mL, peptide at the higher of the 2 concentrations, read-out: inhibition rate (GDF-11 inhibition assay)
[8] = peptide 30nM, Myostatin 10 ng/mL, HepG2, read-out: Myostatin Inhibition 30nM
[9] = peptide 100nM, Myostatin 10 ng/mL, HepG2, read-out: Myostatin Inhibition 100nM

Compound | inhibition at 0.1 µM [1, 4] | inhibition at 0.03 µM [1, 5] | inhibition [2, 6] | inhibition [2, 7] | inhibition at 0.03 µM [1, 8] | inhibition at 0.1 µM [1, 9] | inhibition at 0.03 µM [2] | inhibition at 0.1 µM [2] | also measured
CCCCCCC[C@@H]1NC(=O)[C@H](Cc2ccccc2)N(C)C(=O)[C@H](CCCNC(=N)N)NC(=O)[C@H](Cc2ccc(C(=O)O)cc2)NC(=O)[C@H](Cc2ccc(-c3ccccc3OC)cc2)NC(=O)[C@H](C)N(C)C(=O)[C@H]([C@@H](C)CC)NC(=O)[C@H](Cc2ccccc2)N(C)C(=O)[C@H](Cc2ccc(O)cc2)NC(=O)[C@H](Cc2c[nH]c3cc(O)ccc23)NC(=O)[C@H](C)NC(=O)CN(CCCC(=O)O)C(=O)CSC[C@H](C(=O)O)NC(=O)[C@H](Cc2ccccc2)N(C)C(=O)[C@H](CCC(=O)O)N(C)C1=O [Myostatin_99_v323] ({CH2CO}-[Gly(N(CH2)3COOH)]A[Trp(6-OH)]Y[NMeF]I[NMeA][Phe(4-(2-MeO-Ph))][Phe(4-COOH)]R[NMeF][X1][NMeE][NMeF][dC]-OH; thioether N-15) | – | – | – | – | – | – | – | – | inhibition at 0.03 µM [1, 3]: 97%; inhibition at 0.1 µM [1, 3]: 99%; inhibition ([2]; HepG2, read-out: inhibition rate (GDF-11 inhibition assay), Table 7-3/7-4, GDF-11 10 ng/mL, peptide at the higher of the 2 concentrations): 0%; inhibition ([2]; HepG2, read-out: inhibition rate (GDF-11 inhibition assay), Table 7-3/7-4, GDF-11 10 ng/mL, peptide at the lower of the 2 concentrations): 0%
CCCCCCC[C@@H]1NC(=O)[C@H](Cc2ccccc2)N(C)C(=O)[C@H](CCCNC(=N)N)NC(=O)[C@H](Cc2ccc(C(=O)O)cc2)NC(=O)[C@H](Cc2cccc(OCC(=O)O)c2)NC(=O)[C@H](C)N(C)C(=O)[C@H]([C@@H](C)CC)NC(=O)[C@H](Cc2ccccc2)N(C)C(=O)[C@H](Cc2ccc(O)cc2)NC(=O)[C@H](Cc2c[nH]c3ccccc23)NC(=O)[C@H](C)NC(=O)CN(CCCC(=O)O)C(=O)CSC[C@H](C(=O)N2CCC(CCC(N)=O)CC2)NC(=O)[C@H](Cc2ccccc2)N(C)C(=O)[C@H](C)N(C)C1=O [Myostatin_99_v431] ({CH2CO}-[Gly(N(CH2)3COOH)]AWY[NMeF]I[NMeA][Phe(3-OCH2COOH)][Phe(4-COOH)]R[NMeF][X1][NMeA][NMeF][dC]-{Piperidine(4-CH2CH2CONH2)}; thioether N-15) | 100% | 100% | 0% | 0% | – | – | – | – | –
CC[C@H](C)[C@@H]1NC(=O)[C@H](Cc2ccccc2)N(C)C(=O)[C@H](Cc2ccc(O)cc2)NC(=O)[C@H](Cc2c[nH]c3ccccc23)NC(=O)[C@H](C)NC(=O)CN(CCCC(=O)O)C(=O)CSC[C@H](C(N)=O)NC(=O)[C@H](Cc2ccccc2)N(C)C(=O)[C@H](C)N(C)C(=O)[C@H](CC(C)C)NC(=O)[C@H](Cc2ccccc2)N(C)C(=O)[C@H](CCCNC(=N)N)NC(=O)[C@H](Cc2ccc(C(=O)O)cc2)NC(=O)[C@H](Cc2ccc(O)cc2)NC(=O)[C@H](C)N(C)C1=O [Myostatin_99_Variant_15] ({CH2CO}-[Gly(N(CH2)3COOH)]AWY[NMeF]I[NMeA]Y[Phe(4-COOH)]R[NMeF]L[NMeA][NMeF][dC]-NH2; thioether N-15) | – | – | – | – | 54% | 84% | 0% | 0% | –
CCCCCCC[C@@H]1NC(=O)[C@H](Cc2ccccc2)N(C)C(=O)[C@H](CCCNC(=N)N)NC(=O)[C@H](Cc2ccc(C(=O)O)cc2)NC(=O)[C@H](Cc2ccncc2)NC(=O)CN(C)C(=O)[C@H]([C@@H](C)CC)NC(=O)[C@H](Cc2ccccc2)N(C)C(=O)[C@H](Cc2ccc(O)cc2)NC(=O)[C@H](Cc2c[nH]c3ccccc23)NC(=O)[C@H](C)NC(=O)CN(CCCC(=O)O)C(=O)CSC[C@H](C(=O)N[C@@H](CC2CCN(CC(=O)O)CC2)C(N)=O)NC(=O)[C@H](Cc2ccccc2)N(C)C(=O)[C@H](C)N(C)C1=O [Myostatin_99_v235] ({CH2CO}-[Gly(N(CH2)3COOH)]AWY[NMeF]I[Sar][4Pal][Phe(4-COOH)]R[NMeF][X1][NMeA][NMeF][dC][Ala(1-CH2CO2H-4-piperidyl)]-NH2; thioether N-15) | – | – | – | – | 91% | 99% | 0% | 0% | –
CCCCCCC[C@@H]1NC(=O)[C@H](Cc2ccccc2)N(C)C(=O)[C@H](CCCNC(=N)N)NC(=O)[C@H](Cc2ccc(C(=O)O)cc2)NC(=O)[C@H](Cc2cccc(OCC(=O)O)c2)NC(=O)[C@H](C)N(C)C(=O)[C@H]([C@@H](C)CC)NC(=O)[C@H](Cc2ccccc2)N(C)C(=O)[C@H](Cc2ccc(O)cc2)NC(=O)[C@H](Cc2c[nH]c3c(-c4cccc(Cl)c4)cccc23)NC(=O)[C@H](C)NC(=O)CN(CCCC(=O)O)C(=O)CSC[C@H](C(=O)O)NC(=O)[C@H](Cc2ccccc2)N(C)C(=O)[C@H](C)N(C)C1=O [Myostatin_99_v378] ({CH2CO}-[Gly(N(CH2)3COOH)]A[X16]Y[NMeF]I[NMeA][Phe(3-OCH2COOH)][Phe(4-COOH)]R[NMeF][X1][NMeA][NMeF][dC]-OH; thioether N-15) | 100% | 99% | 0% | 0% | – | – | – | – | –
CC[C@H](C)[C@@H]1NC(=O)[C@H](Cc2ccccc2)N(C)C(=O)[C@H](Cc2ccc(O)cc2)NC(=O)[C@H](Cc2c[nH]c3ccccc23)NC(=O)[C@H](C)NC(=O)[C@H](C)NC(=O)CSC[C@H](C(=O)N[C@@H](CN)C(N)=O)NC(=O)[C@H](Cc2ccccc2)N(C)C(=O)[C@H](C)N(C)C(=O)[C@H](CC(C)C)NC(=O)[C@H](Cc2ccccc2)N(C)C(=O)[C@H](CCCNC(=N)N)NC(=O)[C@H](Cc2ccc(O)cc2)NC(=O)[C@H](CCCCN)NC(=O)CN(C)C1=O [Myostatin_99_Variant_11] ({CH2CO}-AAWY[NMeF]I[Sar]KYR[NMeF]L[NMeA][NMeF][dC][Dap]-NH2; thioether N-15) | – | – | – | – | 75% | 94% | 22% | 26% | –
CCCCCCCCCC[C@@H]1NC(=O)[C@H](Cc2ccccc2)N(C)C(=O)[C@H](CCCNC(=N)N)NC(=O)[C@H](Cc2ccc(C(=O)O)cc2)NC(=O)[C@H](Cc2cccc(OCC(=O)O)c2)NC(=O)CN(C)C(=O)[C@H]([C@@H](C)CC)NC(=O)[C@H](Cc2ccccc2)N(C)C(=O)[C@H](Cc2ccc(O)cc2)NC(=O)[C@H](Cc2c[nH]c3ccccc23)NC(=O)[C@@H](CCCCNC(=O)N2CCN(CC(=O)O)CC2)NC(=O)[C@H](C)NC(=O)CSC[C@H](C(=O)N2CCN(CC(=O)O)CC2)NC(=O)[C@H](Cc2ccccc2)N(C)C(=O)[C@H](C)N(C)C1=O [Myostatin_99_v264] ({CH2CO}-A[dK]([CO-Piperazinyl(4-CH2COOH)])WY[NMeF]I[Sar][Phe(3-OCH2COOH)][Phe(4-COOH)]R[NMeF][Gly(decyl)][NMeA][NMeF][dC]-{Piperazinyl(4-CH2COOH)}; thioether N-15) | – | – | – | – | 100% | 100% | 24% | 72% | –
CCCCCCC[C@@H]1NC(=O)[C@H](Cc2ccccc2)N(C)C(=O)[C@H](CCCNC(=N)N)NC(=O)[C@H](Cc2ccc(C(=O)O)cc2)NC(=O)[C@H](Cc2cccc(OCC(=O)O)c2)NC(=O)CN(C)C(=O)[C@H]([C@@H](C)CC)NC(=O)[C@H](Cc2ccccc2)N(C)C(=O)[C@H](Cc2ccc(O)cc2)NC(=O)[C@H](Cc2c[nH]c3ccccc23)NC(=O)[C@H](C)NC(=O)[C@H](C)NC(=O)CSC[C@H](C(=O)N2CCC(CCC(=O)O)CC2)NC(=O)[C@H](Cc2ccccc2)N(C)C(=O)[C@H](C)N(C)C1=O [Myostatin_99_v314] ({CH2CO}-AAWY[NMeF]I[Sar][Phe(3-OCH2COOH)][Phe(4-COOH)]R[NMeF][X1][NMeA][NMeF][dC]-X12; thioether N-15) | 100% | 100% | 2% | 51% | – | – | – | – | –
